The values below come from US12570612B2, “Substituted nitrogen heterocyclic compound and anesthetic effect thereof” (priority 2019, dated 2026).

The test system of data set [1] is Sprague-Dawley rats. The data set is described as follows: Pharmacological effect and adverse reactions under the equivalent dose (2ED50), Group D compounds. The class given is in vivo. Particulars: for Righting reflex duration / Sedation duration / Onset time: 2ED50, tail vein, rats, n=8; for Adverse reaction: Convulsions / Adverse reaction: Cough, broken-winded / Adverse reaction: Euphoria / Adverse reaction: Four limbs rigidity / Adverse reaction: Red urine / Adverse reaction: Slower breathing, Tetany convulsion / Adverse reaction: Systemic stiffness, Convulsions, Opisthotonus / Adverse reaction: Tongue stretching / Adverse reaction: Tremor: equivalent dose (2 × ED50), number of rats of n = 8. From the text: Evaluation index: onset time: from the completion of drug injection to the disappearance of forepaw righting reflex in rats; Duration of anesthesia: the time from the disappearance of rat forepaw righting reflex to the recovery of rat forepaw righting reflex; Recovery time of anesthesia: the time from the […] to complete recovery;

In data set [2] the test system is Sprague-Dawley rats. The class given is in vivo. Particulars: tail vein.
Another data set has as its system SD rats. Particulars: for After the infusion is stopped: Righting reflex recovery time / Recovery time after stopping infusion: after 1 hour continuous infusion at 2 times the MIR; for After the infusion is stopped: Righting reflex recovery time / Recovery time after stopping infusion / Sedation onset time: SD rats; for Sedation onset time: continuous tail vein infusion at 2 times the MIR. The protocol: Experimental Methods: Adult male SD rats with body weight ranging from 250 g to 350 g were selected for continuous infusion test.
Evaluation indexes: the time from the beginning of continuous infusion to the […] of sedation in rats; the time from the cessation of infusion to the restoration of the forepaw turning reflex after 1 hour of continuous infusion; the time from the cessation of infusion to the complete restoration of rats after 1 hour of continuous infusion.

Data set [3] concerns Sprague-Dawley rats. Put plainly: animal or person. The conditions noted are these: rats; for ED50: Rattus norvegicus, LORR, up and down method, tail vein, class symbols, read-out: ED50. Format: in vivo. From the text:
Evaluating indicator: The end point of anesthesia: the disappearance of forepaw righting reflex (lorr) was used as the end point of anesthesia; General anesthesia effect: the disappearance of forepaw righting reflex in rats lasting for 30 seconds is taken as the index of general anesthesia effect; Anesthesia recovery index: the recovery of rat forepaw righting reflex was used as the index of anesthesia recovery.

The mark [4] stands for this setting: continuous infusion 2 x MIR 1 hour, rats affected/rats.

Consider `COC(OC)(OC)C(=O)c1ccnn1[C@H](C)c1ccccc1` [Compound D1], for which, in the data set with Sprague-Dawley rats [1], the Righting reflex duration is given as 1.18 ± 0.43 min; the Sedation duration amounted to 7.96 ± 2.14 min; the “Adverse reaction: Convulsions” value is 0; the “Adverse reaction: Cough, broken-winded” value was found to be 0. Also, in the data set on Sprague-Dawley rats [1], the “Adverse reaction: Euphoria” value is 0; the “Adverse reaction: Four limbs rigidity” value came to 0; the “Adverse reaction: Red urine” value was found to be 8; the “Adverse reaction: Slower breathing, Tetany convulsion” value (shortened to “Adverse reaction: Slower breathing”) was 0. Also, in the data set with Sprague-Dawley rats [1], the “Adverse reaction: Systemic stiffness, Convulsions, Opisthotonus” value (from here on “Adverse reaction: Systemic stiffness”) is 0; the “Adverse reaction: Tongue stretching” value is 1; the “Adverse reaction: Tremor” value is given as 0. Further, in the data set on Sprague-Dawley rats [1] (unit min), the Onset time is reported as under 1 min. The same molecule returned a Minimal lethal dose in the data set with Sprague-Dawley rats [2] of over 11.2 mg/kg. Further, in the data set with SD rats, the “After the infusion is stopped: Righting reflex recovery time” value (shortened to “After the infusion is stopped”) lay in the range of 18 to 24 min, the “Recovery time after stopping infusion” value was in the range of 35 to 45 min and the Sedation onset time is under 5 min. For the same molecule, in the data set on SD rats (setting [4]), the “Types and incidence of adverse reactions: Red urine” value (“Types and incidence … Red urine” for short) is 6/6; the “Types and incidence of adverse reactions: Tongue stretching” value is “Tongue stretching(2/6)”; the “Types and incidence of adverse reactions: Tremor” value (“Types and incidence … Tremor” below) is 2/6. Further, in the data set on Sprague-Dawley rats [3], the ED50 was in the range of 0.5 to 1 mg/kg and the Approximate therapeutic index was over 8.4.
As to `COC(OC)(OC)C(=O)c1cc(F)nn1[C@H](C)c1ccccc1` [Compound D17], in the data set with Sprague-Dawley rats [1], the Righting reflex duration came to 0.86 ± 0.23 min; the Sedation duration amounted to 5.48 ± 0.50 min; the “Adverse reaction: Convulsions” value stood at 0; the “Adverse reaction: Cough, broken-winded” value turned out to be 0. In the data set with Sprague-Dawley rats [1], the “Adverse reaction: Euphoria” value is reported as 0; the “Adverse reaction: Four limbs rigidity” value was found to be 1; the “Adverse reaction: Red urine” value was 8; the “Adverse reaction: Slower breathing” value is reported as 0. In addition, in the data set with Sprague-Dawley rats [1], the “Adverse reaction: Systemic stiffness” value stood at 0; the “Adverse reaction: Tongue stretching” value is 0; the “Adverse reaction: Tremor” value was 0. Besides, in the data set with Sprague-Dawley rats [1] (unit min), the Onset time is under 1 min. The molecule also came in with a Minimal lethal dose in the data set on Sprague-Dawley rats [2] of over 11.9 mg/kg. Besides, in the data set with SD rats, the “After the infusion is stopped” value lay within 15 to 22 min, the “Recovery time after stopping infusion” value fell in the range of 25 to 35 min and the Sedation onset time is on record as under 5 min. In the data set with SD rats (setting [4]), the “Types and incidence … Red urine” value is 6/6; the “Types and incidence … Tremor” value is recorded as 1/6. For the same molecule, in the data set with Sprague-Dawley rats [3], the median effective dose (ED50) lay within 0.5 to 1 mg/kg and the Approximate therapeutic index is given as over 4.5.
With `COC(OC)C(=O)c1cc(F)nn1[C@H](C)c1ccccc1` [Compound D25], in the data set with Sprague-Dawley rats [1], the Righting reflex duration is 1.52 ± 0.26 min; the Sedation duration is recorded as 6.82 ± 0.27 min; the “Adverse reaction: Convulsions” value was determined as 0; the “Adverse reaction: Cough, broken-winded” value is 0. Further, in the data set on Sprague-Dawley rats [1], the “Adverse reaction: Euphoria” value amounted to 0; the “Adverse reaction: Four limbs rigidity” value is on record as 1; the “Adverse reaction: Red urine” value amounted to 8; the “Adverse reaction: Slower breathing” value amounted to 0. Further, in the data set with Sprague-Dawley rats [1], the “Adverse reaction: Systemic stiffness” value is given as 0; the “Adverse reaction: Tongue stretching” value is recorded as 0; the “Adverse reaction: Tremor” value came out at 2. For the same molecule, the Onset time with Sprague-Dawley rats [1] (unit min) is listed as under 1 min. Also, the Minimal lethal dose with Sprague-Dawley rats [2] was over 8.4 mg/kg. In the data set on SD rats, the “After the infusion is stopped” value fell in the range of 16 to 24 min, the “Recovery time after stopping infusion” value fell in the range of 30 to 40 min and the Sedation onset time was under 5 min. In addition, in the data set on SD rats (setting [4]), the “Types and incidence of adverse reactions: Hindlimb rigidity” value is given as “Hindlimb rigidity(1/6)”; the “Types and incidence … Red urine” value is given as 6/6; the “Types and incidence … Tremor” value is 2/6. Besides, in the data set on Sprague-Dawley rats [3], the ED50 lay within 0.5 to 1 mg/kg and the Approximate therapeutic index was over 10.2.
Regarding `CC(C)CCOC(=O)C(=O)c1cncn1[C@H](C)c1ccccc1` [Compound D82], in the data set on Sprague-Dawley rats [1], the Righting reflex duration amounted to 0.98 ± 0.31 min; the Sedation duration is given as 6.70 ± 1.46 min; the “Adverse reaction: Convulsions” value stood at 0; the “Adverse reaction: Cough, broken-winded” value is on record as 0. Moreover, in the data set on Sprague-Dawley rats [1], the “Adverse reaction: Euphoria” value stood at 0; the “Adverse reaction: Four limbs rigidity” value is 2; the “Adverse reaction: Red urine” value turned out to be 8; the “Adverse reaction: Slower breathing” value is reported as 0. In the data set with Sprague-Dawley rats [1], the “Adverse reaction: Systemic stiffness” value is reported as 0; the “Adverse reaction: Tongue stretching” value was 1; the “Adverse reaction: Tremor” value came to 0. Besides, the Onset time with Sprague-Dawley rats [1] (unit min) is listed as under 1 min. In addition, in the data set with Sprague-Dawley rats [2], the Minimal lethal dose is over 7.8 mg/kg. Further, in the data set with Sprague-Dawley rats [3], the median effective dose (ED50) was in the range of 2 to 6 mg/kg and the Approximate therapeutic index was over 6.3.
Take `C[C@H](c1ccccc1)n1cncc1C(=O)C(=O)OCC(C)(C)C` [Compound D86]: in the data set with Sprague-Dawley rats [1], the Righting reflex duration was 1.24 ± 0.12 min; the Sedation duration is reported as 7.88 ± 1.94 min; the “Adverse reaction: Convulsions” value was determined as 0; the “Adverse reaction: Cough, broken-winded” value was 0. In the data set with Sprague-Dawley rats [1], the “Adverse reaction: Euphoria” value amounted to 0; the “Adverse reaction: Four limbs rigidity” value was 0; the “Adverse reaction: Red urine” value was 8; the “Adverse reaction: Slower breathing” value turned out to be 0. Moreover, in the data set with Sprague-Dawley rats [1], the “Adverse reaction: Systemic stiffness” value came out at 2; the “Adverse reaction: Tongue stretching” value is 0; the “Adverse reaction: Tremor” value came to 0. Moreover, in the data set with Sprague-Dawley rats [1] (unit min), the Onset time is listed as under 1 min. Also, the Minimal lethal dose in the data set on Sprague-Dawley rats [2] is over 9.8 mg/kg. In addition, in the data set on Sprague-Dawley rats [3], the median effective dose (ED50) was in the range of 1 to 2 mg/kg and the Approximate therapeutic index was over 7.3.
As to `COC(OC)C(=O)c1cncn1[C@H](C)c1ccccc1` [Compound D87], in the data set with Sprague-Dawley rats [1], the Righting reflex duration was found to be 4.34 ± 0.54 min; the Sedation duration came to 8.26 ± 2.74 min; the “Adverse reaction: Convulsions” value is recorded as 0; the “Adverse reaction: Cough, broken-winded” value was determined as 0. In the data set on Sprague-Dawley rats [1], the “Adverse reaction: Euphoria” value is reported as 0; the “Adverse reaction: Four limbs rigidity” value was determined as 0; the “Adverse reaction: Red urine” value is recorded as 8; the “Adverse reaction: Slower breathing” value is 0. Further, in the data set with Sprague-Dawley rats [1], the “Adverse reaction: Systemic stiffness” value came to 5; the “Adverse reaction: Tongue stretching” value was 0; the “Adverse reaction: Tremor” value is 0. The Onset time in the data set on Sprague-Dawley rats [1] (unit s) was under 0.5 min. In the data set with Sprague-Dawley rats [2], this molecule showed a Minimal lethal dose of over 13.2 mg/kg. Further, in the data set with Sprague-Dawley rats [3], the ED50 is 1 to 2 mg/kg and the Approximate therapeutic index is reported as over 6.8.
In the case of `CCOC(OCC)C(=O)c1cncn1[C@H](C)c1ccccc1` [Compound D88], in the data set with Sprague-Dawley rats [1], the Righting reflex duration is recorded as 1.86 ± 1.02 min; the Sedation duration is listed as 7.08 ± 1.06 min; the “Adverse reaction: Convulsions” value was found to be 0; the “Adverse reaction: Cough, broken-winded” value is 0. Besides, in the data set on Sprague-Dawley rats [1], the “Adverse reaction: Euphoria” value was 0; the “Adverse reaction: Four limbs rigidity” value is recorded as 1; the “Adverse reaction: Red urine” value stood at 8; the “Adverse reaction: Slower breathing” value is 0. In addition, in the data set on Sprague-Dawley rats [1], the “Adverse reaction: Systemic stiffness” value is given as 7; the “Adverse reaction: Tongue stretching” value is recorded as 1; the “Adverse reaction: Tremor” value is reported as 1. Moreover, the Onset time with Sprague-Dawley rats [1] (unit s) was under 0.5 min. In addition, in the data set with Sprague-Dawley rats [2], the Minimal lethal dose is reported as over 2.6 mg/kg. Besides, in the data set on Sprague-Dawley rats [3], the 50% effective dose (ED50) fell in the range of 1 to 2 mg/kg and the Approximate therapeutic index is listed as over 10.3.
Regarding `COC(OC)(OC)C(=O)c1c(F)ncn1[C@H](C)c1ccccc1` [Compound D93], in the data set on Sprague-Dawley rats [1], the Righting reflex duration came out at 2.50 ± 0.30 min; the Sedation duration is 6.89 ± 0.80 min; the “Adverse reaction: Convulsions” value is 0; the “Adverse reaction: Cough, broken-winded” value came to 0. Also, in the data set with Sprague-Dawley rats [1], the “Adverse reaction: Euphoria” value came out at 0; the “Adverse reaction: Four limbs rigidity” value turned out to be 0; the “Adverse reaction: Red urine” value is 8; the “Adverse reaction: Slower breathing” value is recorded as 0. In the data set on Sprague-Dawley rats [1], the “Adverse reaction: Systemic stiffness” value was determined as 8; the “Adverse reaction: Tongue stretching” value was 1; the “Adverse reaction: Tremor” value was determined as 0. The Onset time in the data set on Sprague-Dawley rats [1] (unit s) was under 0.5 min. This molecule also registered a Minimal lethal dose in the data set on Sprague-Dawley rats [2] of over 1.8 mg/kg. Also, in the data set with Sprague-Dawley rats [3], the ED50 was in the range of 0.04 to 0.5 mg/kg and the Approximate therapeutic index is on record as over 25.1.
For the molecule `CCOC(OCC)C(=O)c1c(F)ncn1[C@H](C)c1ccccc1` [Compound D101], in the data set on Sprague-Dawley rats [1], the Righting reflex duration is listed as 1.80 ± 0.58 min; the Sedation duration was determined as 7.20 ± 3.21 min; the “Adverse reaction: Convulsions” value stood at 0; the “Adverse reaction: Cough, broken-winded” value is given as 0. Moreover, in the data set on Sprague-Dawley rats [1], the “Adverse reaction: Euphoria” value is given as 0; the “Adverse reaction: Four limbs rigidity” value stood at 0; the “Adverse reaction: Red urine” value was 8; the “Adverse reaction: Slower breathing” value was determined as 0. Also, in the data set on Sprague-Dawley rats [1], the “Adverse reaction: Systemic stiffness” value is 2; the “Adverse reaction: Tongue stretching” value is on record as 0; the “Adverse reaction: Tremor” value came to 0. Moreover, the Onset time with Sprague-Dawley rats [1] (unit s) is under 0.5 min. In the data set with Sprague-Dawley rats [2], the Minimal lethal dose is over 9.3 mg/kg. In addition, in the data set with Sprague-Dawley rats [3], the ED50 was 0.04 to 0.5 mg/kg and the Approximate therapeutic index is listed as over 10.5.
